# Data reported in patent US20080009418A1, “Selective Inhibitors” (Alchemia LTD., priority 2004, published 2008).
# How the values were obtained:
# [1] = target: T1, Human opioid (ORL1) (Homo sapiens, UniProt P41146); experiment: Radioligand binding, human opioid ORL1 membranes, FlashPlate, [125I]-Nociceptin; details: compound at 10 μM, [125I]-Nociceptin
# T1 construct: purchased Perkin Elmer Biosignal
# How it was run: (§1)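 Cloned human receptor membranes were coated onto FlashPlate wells and incubated with radioligand and compound (added from a 0.5 mM DMSO daughter plate) for 1 hour at room temperature in the dark. Scintillation counting gave percent inhibition, with DMSO defining total and reference ligand defining non-specific binding.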
# [2] = target: T2, Human melanocortin (MC5) (Homo sapiens, UniProt P33032); experiment: Radioligand binding, human melanocortin MC5 membranes, FlashPlate, [125I]-NDP-αMSH; details: compound at 10 μM, [125I]-NDP-αMSH
# T2 construct: purchased Perkin Elmer Biosignal
# How it was run: as §1
# [3] = target: T3, Human κ-Opioid (KOP) (Homo sapiens, UniProt P41145); experiment: Radioligand binding, human κ-opioid (KOP) membranes, filtration, [3H]-Diprenorphine; details: compound at 10 μM, [3H]-Diprenorphine
# T3 construct: purchased Perkin Elmer Biosignal
# How it was run: (§2)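 Membranes from cloned human receptors were incubated with compound and radioligand for 1 hour at room temperature. Bound ligand was collected on 0.3% PEI-soaked filters, washed with cold 50 mM Tris-HCl pH 7.4, and counted by scintillation. Percent inhibition was computed against DMSO totals and reference-ligand nonspecific wells.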
# [4] = target: T4, Human neuropeptide Y (NPY-Y1) (Homo sapiens, UniProt P25929); experiment: Radioligand binding, human neuropeptide Y NPY-Y1 membranes, FlashPlate, [125I]-PYY; details: compound at 10 μM, [125I]-PYY
# T4 construct: purchased Perkin Elmer Biosignal
# T4 sequence (P25929 1-384): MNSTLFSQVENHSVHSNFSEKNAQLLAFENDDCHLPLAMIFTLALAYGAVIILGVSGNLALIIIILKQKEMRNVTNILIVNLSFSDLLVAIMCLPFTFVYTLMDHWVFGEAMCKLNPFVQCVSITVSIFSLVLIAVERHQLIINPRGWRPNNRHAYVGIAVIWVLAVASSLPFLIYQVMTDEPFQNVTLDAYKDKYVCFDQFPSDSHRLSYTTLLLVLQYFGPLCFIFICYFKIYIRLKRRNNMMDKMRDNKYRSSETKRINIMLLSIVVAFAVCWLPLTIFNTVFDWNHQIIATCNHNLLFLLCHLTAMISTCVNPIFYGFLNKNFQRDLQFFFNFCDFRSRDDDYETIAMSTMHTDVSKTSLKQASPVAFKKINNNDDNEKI
# How it was run: as §1
# [5] = target: T5, Human μ-opioid (MOP) (Homo sapiens, UniProt P35372); experiment: Radioligand binding, human μ-opioid (MOP) membranes, FlashPlate, [3H]-Naloxone; details: compound at 10 μM, [3H]-Naloxone
# T5 construct: purchased Perkin Elmer Biosignal
# How it was run: as §1
# [6] = target: T6, Human δ-opioid (DOP) (Homo sapiens, UniProt P41143); experiment: Radioligand binding, human δ-opioid (DOP) membranes, FlashPlate, [3H]-Bremazocine; details: compound at 10 μM, [3H]-Bremazocine
# T6 construct: purchased Perkin Elmer Biosignal
# How it was run: as §1
# [7] = target: T7, Human melanin-concentrating hormone (MCH1) (Homo sapiens, UniProt Q99705); experiment: Radioligand binding, human melanin-concentrating hormone MCH1 membranes, FlashPlate, [125I]-S36057; details: compound at 10 μM
# T7 construct: purchased Perkin Elmer Biosignal
# How it was run: as §1
# [8] = target: T8, Human Melanocortin (MC4) (Homo sapiens, UniProt P32245); experiment: Radioligand binding, human melanocortin MC4 membranes, FlashPlate, [125I]-NDP-αMSH; details: compound at 10 μM, [125I]-NDP-αMSH
# T8 construct: purchased Perkin Elmer Biosignal
# How it was run: as §1
# [9] = target: T9, Human neurokinin (NK1) (Homo sapiens, UniProt P25103); experiment: Radioligand binding, human neurokinin NK1 membranes, filtration, [125I]-Substance P; details: compound at 10 μM, [125I]-Substance P
# T9 construct: purchased Perkin Elmer Biosignal
# How it was run: as §2
# [10] = target: T10, Human Melanocortin (MC3) (Homo sapiens, UniProt P41968); experiment: Radioligand binding, human melanocortin MC3 membranes, FlashPlate, [125I]-NDP-αMSH; details: compound at 10 μM, [125I]-NDP-αMSH
# T10 construct: purchased Perkin Elmer Biosignal
# How it was run: as §1
# [11] = target: T11, Mouse urotensin (mUR2) (Mus musculus, UniProt Q8VIH9); experiment: Radioligand binding, mouse urotensin mUR2 membranes, FlashPlate, [125I]-Urotensin II; details: compound at 10 μM, [125I]-Urotensin II
# T11 construct: purchased Perkin Elmer Biosignal
# T11 sequence (Q8VIH9 1-385): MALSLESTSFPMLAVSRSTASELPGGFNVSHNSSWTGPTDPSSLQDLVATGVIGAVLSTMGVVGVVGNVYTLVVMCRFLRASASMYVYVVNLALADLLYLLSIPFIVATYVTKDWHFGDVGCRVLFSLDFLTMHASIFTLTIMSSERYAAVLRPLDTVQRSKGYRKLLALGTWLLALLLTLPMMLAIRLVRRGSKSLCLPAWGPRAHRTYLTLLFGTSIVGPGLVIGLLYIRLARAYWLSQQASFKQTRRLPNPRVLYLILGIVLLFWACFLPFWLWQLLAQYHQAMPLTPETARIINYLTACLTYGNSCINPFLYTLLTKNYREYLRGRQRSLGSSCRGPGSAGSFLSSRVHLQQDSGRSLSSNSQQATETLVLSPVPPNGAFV
# How it was run: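 Cloned mouse urotensin (mUR2) receptor membranes from Perkin Elmer Biosignal were immobilized in FlashPlate microplates using a proprietary coating. Each well got 19.5 μl buffer, then 0.5 μl of DMSO, reference ligand, or compound. Adding 5 μl of [125I]-Urotensin II, diluted to 5× final concentration in binding buffer, started binding. Plates were sealed with TopSeal-A and incubated 1 hour at room temperature in the dark. Wells were counted for 30 seconds each on a TopCount after a 60-second delay, and percentage inhibition was calculated.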
# T8 sequence (P32245 whole entry): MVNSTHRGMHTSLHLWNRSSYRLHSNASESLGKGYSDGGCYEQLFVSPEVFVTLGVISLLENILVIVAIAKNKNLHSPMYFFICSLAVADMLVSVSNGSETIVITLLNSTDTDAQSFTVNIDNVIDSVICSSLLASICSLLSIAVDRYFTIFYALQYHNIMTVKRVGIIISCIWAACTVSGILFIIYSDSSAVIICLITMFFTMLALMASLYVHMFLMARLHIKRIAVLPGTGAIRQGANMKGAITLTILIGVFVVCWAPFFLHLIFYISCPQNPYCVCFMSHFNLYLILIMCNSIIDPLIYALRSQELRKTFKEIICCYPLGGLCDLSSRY
# T7 sequence (Q99705 whole entry): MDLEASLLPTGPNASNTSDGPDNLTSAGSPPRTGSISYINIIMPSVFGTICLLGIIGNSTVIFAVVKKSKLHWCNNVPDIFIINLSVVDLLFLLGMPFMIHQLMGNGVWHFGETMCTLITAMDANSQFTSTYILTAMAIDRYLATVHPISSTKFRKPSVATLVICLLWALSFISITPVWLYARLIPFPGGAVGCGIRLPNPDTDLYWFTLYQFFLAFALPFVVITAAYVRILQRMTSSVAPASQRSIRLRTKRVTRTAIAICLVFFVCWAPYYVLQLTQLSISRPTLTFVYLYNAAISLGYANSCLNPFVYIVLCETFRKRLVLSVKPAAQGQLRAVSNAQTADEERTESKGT
# T1 sequence (P41146 whole entry): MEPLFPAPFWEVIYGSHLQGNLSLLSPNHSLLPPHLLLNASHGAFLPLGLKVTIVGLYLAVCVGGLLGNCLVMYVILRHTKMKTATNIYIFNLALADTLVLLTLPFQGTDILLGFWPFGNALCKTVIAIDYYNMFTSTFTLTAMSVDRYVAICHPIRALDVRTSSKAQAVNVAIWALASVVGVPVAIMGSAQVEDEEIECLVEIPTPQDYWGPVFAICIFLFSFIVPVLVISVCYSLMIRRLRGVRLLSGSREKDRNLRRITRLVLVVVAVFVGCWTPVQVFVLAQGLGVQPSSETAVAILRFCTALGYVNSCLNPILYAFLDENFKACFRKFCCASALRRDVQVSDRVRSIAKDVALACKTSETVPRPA
# T9 sequence (P25103 whole entry): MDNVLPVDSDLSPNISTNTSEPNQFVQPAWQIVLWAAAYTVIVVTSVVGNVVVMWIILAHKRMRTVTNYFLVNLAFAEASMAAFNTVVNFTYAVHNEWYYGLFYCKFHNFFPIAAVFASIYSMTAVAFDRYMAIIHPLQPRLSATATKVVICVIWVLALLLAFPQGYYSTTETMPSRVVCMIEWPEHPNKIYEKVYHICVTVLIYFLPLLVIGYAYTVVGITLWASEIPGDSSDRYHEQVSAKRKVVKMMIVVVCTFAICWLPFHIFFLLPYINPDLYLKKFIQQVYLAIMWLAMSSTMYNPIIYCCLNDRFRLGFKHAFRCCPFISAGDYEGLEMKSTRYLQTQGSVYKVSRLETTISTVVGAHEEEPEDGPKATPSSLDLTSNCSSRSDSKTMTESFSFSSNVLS
# T3 sequence (P41145 whole entry): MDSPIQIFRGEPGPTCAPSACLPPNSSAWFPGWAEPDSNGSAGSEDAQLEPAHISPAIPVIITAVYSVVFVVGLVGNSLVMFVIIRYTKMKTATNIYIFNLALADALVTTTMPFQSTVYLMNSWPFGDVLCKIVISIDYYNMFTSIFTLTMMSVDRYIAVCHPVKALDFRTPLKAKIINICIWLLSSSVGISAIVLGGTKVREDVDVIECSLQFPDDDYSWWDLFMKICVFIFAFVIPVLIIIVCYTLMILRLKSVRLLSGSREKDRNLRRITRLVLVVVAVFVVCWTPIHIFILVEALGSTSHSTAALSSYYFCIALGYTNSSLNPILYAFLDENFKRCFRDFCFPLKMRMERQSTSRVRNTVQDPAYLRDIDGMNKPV
# T6 sequence (P41143 whole entry): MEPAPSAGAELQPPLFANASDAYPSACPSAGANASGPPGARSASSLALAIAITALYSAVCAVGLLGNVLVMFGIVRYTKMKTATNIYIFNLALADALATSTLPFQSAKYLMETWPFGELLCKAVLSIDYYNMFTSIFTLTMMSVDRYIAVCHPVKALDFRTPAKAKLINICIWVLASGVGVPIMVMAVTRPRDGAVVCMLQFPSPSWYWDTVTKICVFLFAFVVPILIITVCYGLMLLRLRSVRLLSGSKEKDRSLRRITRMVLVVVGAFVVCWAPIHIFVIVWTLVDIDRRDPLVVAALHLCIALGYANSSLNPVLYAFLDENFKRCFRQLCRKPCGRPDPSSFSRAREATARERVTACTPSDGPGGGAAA
# T10 sequence (P41968 whole entry): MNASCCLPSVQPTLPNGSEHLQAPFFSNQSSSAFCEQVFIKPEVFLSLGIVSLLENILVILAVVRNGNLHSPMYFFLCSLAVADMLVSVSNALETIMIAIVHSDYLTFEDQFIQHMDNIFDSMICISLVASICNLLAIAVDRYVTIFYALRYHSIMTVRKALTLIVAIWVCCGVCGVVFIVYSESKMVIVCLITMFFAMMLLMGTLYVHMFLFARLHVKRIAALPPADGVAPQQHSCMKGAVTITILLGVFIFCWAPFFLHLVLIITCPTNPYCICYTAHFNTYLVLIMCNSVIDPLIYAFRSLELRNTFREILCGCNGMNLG
# T5 sequence (P35372 whole entry): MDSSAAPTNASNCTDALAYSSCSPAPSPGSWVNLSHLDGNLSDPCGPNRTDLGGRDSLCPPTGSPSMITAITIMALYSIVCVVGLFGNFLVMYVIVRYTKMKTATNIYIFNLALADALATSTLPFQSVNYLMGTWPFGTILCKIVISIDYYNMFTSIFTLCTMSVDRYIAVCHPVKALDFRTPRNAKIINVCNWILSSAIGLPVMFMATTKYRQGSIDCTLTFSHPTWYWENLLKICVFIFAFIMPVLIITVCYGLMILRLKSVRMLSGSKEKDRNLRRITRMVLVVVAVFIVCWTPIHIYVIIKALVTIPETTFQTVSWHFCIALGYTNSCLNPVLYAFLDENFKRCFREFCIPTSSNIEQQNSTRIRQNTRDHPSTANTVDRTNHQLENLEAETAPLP
# T2 sequence (P33032 whole entry): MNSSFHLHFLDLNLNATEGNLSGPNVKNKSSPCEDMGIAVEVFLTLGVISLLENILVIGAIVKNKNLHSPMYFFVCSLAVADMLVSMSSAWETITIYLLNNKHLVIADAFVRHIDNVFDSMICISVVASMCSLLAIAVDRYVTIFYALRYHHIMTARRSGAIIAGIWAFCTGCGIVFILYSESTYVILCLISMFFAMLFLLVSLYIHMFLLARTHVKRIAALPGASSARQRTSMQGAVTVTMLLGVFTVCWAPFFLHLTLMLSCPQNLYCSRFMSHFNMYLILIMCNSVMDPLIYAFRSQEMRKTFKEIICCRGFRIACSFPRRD
SMILES,"A10: inhibition of radioligand binding, human opioid (ORL1) [1]","A5: inhibition of radioligand binding, human melanocortin (MC5) [2]","A2: inhibition of radioligand binding, human κ-opioid (KOP) [3]","A9: inhibition of radioligand binding, human neuropeptide Y (NPY-Y1) [4]","A7: inhibition of radioligand binding, human μ-opioid (MOP) [5]","A1: inhibition of radioligand binding, human δ-opioid (DOP) [6]","A6: inhibition of radioligand binding, human melanin-concentrating hormone (MCH1) ([7]; [125I]-S36057)","A4: inhibition of radioligand binding, human melanocortin (MC4) [8]","A8: inhibition of radioligand binding, human neurokinin (NK1) [9]","A3: inhibition of radioligand binding, human melanocortin (MC3) [10]","A11: inhibition of radioligand binding, mouse urotensin (mUR2) [11]",other results
CO[C@H]1[C@H](O)[C@@H](COCc2ccc3ccccc3c2)OC(OCCc2ccccc2)[C@@H]1NC(=O)CCCN (stereo partly shown) [compound 115],–,–,–,–,–,–,–,–,–,–,–,"A10 radioligand binding, percentage inhibition [1]: − (“−” indicates less than 50% inhibition at 10 μM); A5 radioligand binding, percentage inhibition [2]: − (“−” indicates less than 50% inhibition at 10 μM); A2 radioligand binding, percentage inhibition [3]: − (“−” indicates less than 50% inhibition at 10 μM); A9 radioligand binding, percentage inhibition [4]: − (“−” indicates less than 50% inhibition at 10 μM); A7 radioligand binding, percentage inhibition [5]: − (“−” indicates less than 50% inhibition at 10 μM); A1 radioligand binding, percentage inhibition [6]: − (“−” indicates less than 50% inhibition at 10 μM); A6 radioligand binding, percentage inhibition ([7]; [125I]-S36057): − (“−” indicates less than 50% inhibition at 10 μM); A4 radioligand binding, percentage inhibition [8]: − (“−” indicates less than 50% inhibition at 10 μM); A8 radioligand binding, percentage inhibition [9]: + (“+” indicates greater than 50% inhibition at 10 μM); A3 radioligand binding, percentage inhibition [10]: − (“−” indicates less than 50% inhibition at 10 μM); A11 radioligand binding, percentage inhibition [11]: − (“−” indicates less than 50% inhibition at 10 μM)"
NCCCC(=O)NC1C(OCc2ccccc2)OC(COCc2ccc3ccccc3c2)C(O)C1OCc1ccc(Cl)cc1 (stereo not shown) [compound 372],− (“−” indicates less than 50% inhibition at 10 μM),+ (“+” indicates greater than 50% inhibition at 10 μM),− (“−” indicates less than 50% inhibition at 10 μM),− (“−” indicates less than 50% inhibition at 10 μM),− (“−” indicates less than 50% inhibition at 10 μM),− (“−” indicates less than 50% inhibition at 10 μM),− (“−” indicates less than 50% inhibition at 10 μM),+ (“+” indicates greater than 50% inhibition at 10 μM),+ (“+” indicates greater than 50% inhibition at 10 μM),− (“−” indicates less than 50% inhibition at 10 μM),− (“−” indicates less than 50% inhibition at 10 μM),–
N=C(N)NCC(=O)N[C@H]1C(OCc2ccc(Cl)cc2)O[C@H](COCc2ccc(Cl)cc2)[C@@H](O)[C@@H]1OCc1ccc(-c2ccccc2)cc1 (stereo partly shown) [compound 521],–,+ (“+” indicates greater than 50% inhibition at 10 μM),− (“−” indicates less than 50% inhibition at 10 μM),− (“−” indicates less than 50% inhibition at 10 μM),− (“−” indicates less than 50% inhibition at 10 μM),− (“−” indicates less than 50% inhibition at 10 μM),+ (“+” indicates greater than 50% inhibition at 10 μM),+ (“+” indicates greater than 50% inhibition at 10 μM),+ (“+” indicates greater than 50% inhibition at 10 μM),+ (“+” indicates greater than 50% inhibition at 10 μM),− (“−” indicates less than 50% inhibition at 10 μM),"A10: inhibition of radioligand binding, human opioid (ORL1) ([1]; 10 µM): + (“+” indicates greater than 50% inhibition at 10 μM)"
N=C(N)NCCC(=O)N[C@H]1C(OCc2ccc(Cl)cc2)O[C@H](COCc2ccc(Cl)cc2)[C@@H](O)[C@@H]1OCc1ccc(-c2ccccc2)cc1 (stereo partly shown) [compound 538],+ (“+” indicates greater than 50% inhibition at 10 μM),+ (“+” indicates greater than 50% inhibition at 10 μM),–,–,− (“−” indicates less than 50% inhibition at 10 μM),− (“−” indicates less than 50% inhibition at 10 μM),+ (“+” indicates greater than 50% inhibition at 10 μM),+ (“+” indicates greater than 50% inhibition at 10 μM),+ (“+” indicates greater than 50% inhibition at 10 μM),+ (“+” indicates greater than 50% inhibition at 10 μM),–,"A2: inhibition of radioligand binding, human κ-opioid (KOP) ([3]; 10 µM): + (“+” indicates greater than 50% inhibition at 10 μM); A9: inhibition of radioligand binding, human neuropeptide Y (NPY-Y1) ([4]; 10 µM): + (“+” indicates greater than 50% inhibition at 10 μM); A11: inhibition of radioligand binding, mouse urotensin (mUR2) ([11]; 10 µM): + (“+” indicates greater than 50% inhibition at 10 μM)"
COCC1OC(OCc2ccc3ccccc3c2)C(NC(=O)CCN)C(OCc2ccc(Cl)cc2)C1O (stereo not shown) [compound 237],–,–,–,–,–,–,–,–,–,–,–,"A10: inhibition of radioligand binding ([1]; FlashPlate): − (“−” indicates less than 50% inhibition at 10 μM); A5: inhibition of radioligand binding ([2]; FlashPlate): + (“+” indicates greater than 50% inhibition at 10 μM); A2: inhibition of radioligand binding ([3]; filtration): − (“−” indicates less than 50% inhibition at 10 μM); A9: inhibition of radioligand binding ([4]; FlashPlate): − (“−” indicates less than 50% inhibition at 10 μM); A7: inhibition of radioligand binding ([5]; FlashPlate): − (“−” indicates less than 50% inhibition at 10 μM); A1: inhibition of radioligand binding ([6]; FlashPlate): − (“−” indicates less than 50% inhibition at 10 μM); A6: inhibition of radioligand binding ([7]; [125I]-S36057, FlashPlate): − (“−” indicates less than 50% inhibition at 10 μM); A4: inhibition of radioligand binding ([8]; FlashPlate): − (“−” indicates less than 50% inhibition at 10 μM); A8: inhibition of radioligand binding ([9]; filtration): + (“+” indicates greater than 50% inhibition at 10 μM); A3: inhibition of radioligand binding ([10]; FlashPlate): − (“−” indicates less than 50% inhibition at 10 μM); A11: inhibition of radioligand binding ([11]; FlashPlate): − (“−” indicates less than 50% inhibition at 10 μM)"
